The values below come from US11229638B2, “Therapeutic heterocyclic compounds” (Gilead Sciences, Inc., priority 2017, dated 2022).

The assay concerns the target T1, IDO1 (Homo sapiens, UniProt P14902).
T1 construct: HeLa cells were treated with a test compound in the presence of IFNγ, which induces IDO1 expression; host or cells: H1-HeLa cells, IDO1 induced with IFN-gamma
The experiment in a line: Cell-Based (HeLa) Assay for Measurement of IDO1 Inhibition. As to conditions: H1-HeLa cells, IDO1 induced by IFNγ, 48 hour incubation, kynurenine in supernatant (absorbance at 480 nm); geometric mean of a minimum of four determinations. The procedure: Example 509. Cell-Based (HeLa) Assay for Measurement of IDO1 Inhibition
To measure IDO1 inhibition in tissue culture, HeLa cells were treated with a test compound in the presence of IFNγ, which induces IDO1 expression. Following incubation, cell supernatants were assayed for kynurenine levels, an indicator of IDO1 activity.
H1-HeLa cells (ATCC # CRL-1958) were seeded in 384-well plates (Greiner #82051-282) at a volume of 50 µL/well in DMEM (Corning #15-018-CM) supplemented with 10% FBS (Corning #35-011-CV) and 1% P/S/G (Corning #30-009-CL) at a density of 1,250 cells/well and incubated overnight at 37° C., 5% CO2/100% humidity. The following day, the test compounds were added in DMSO (0.5% final) at various concentrations, and IDO1 was inducibly expressed by the addition of 50 uL/well of 50 ng/mL of INFγ (Peprotech #300-02) in cell plating media. As a positive control, 50 uL of the cell plating media without IFNγ was added to several wells. Following a 48 hour incubation, the plates were spun down at 1,200 RPM for 5 min at 10° C. […]
Data in Table 1 were normalized based on positive (−IFNγ) and negative (+IFNγ) controls and EC50 values were calculated from the fit of the dose-response curves to a four-parameter equation. […]

T1 sequence (P14902 whole entry): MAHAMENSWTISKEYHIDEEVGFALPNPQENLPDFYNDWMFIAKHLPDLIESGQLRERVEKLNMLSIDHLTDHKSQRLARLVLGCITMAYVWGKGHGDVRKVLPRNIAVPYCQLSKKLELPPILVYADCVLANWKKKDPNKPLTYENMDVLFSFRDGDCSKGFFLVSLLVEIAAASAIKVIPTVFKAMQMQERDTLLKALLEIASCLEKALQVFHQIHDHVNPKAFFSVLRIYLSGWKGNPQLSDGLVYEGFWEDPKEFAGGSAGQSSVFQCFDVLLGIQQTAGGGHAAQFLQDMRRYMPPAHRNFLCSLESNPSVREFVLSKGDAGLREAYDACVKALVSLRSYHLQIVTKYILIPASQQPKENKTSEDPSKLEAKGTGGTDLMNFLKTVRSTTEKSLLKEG

In turn, `Cc1ncc(-c2cccn3c(C4CCOC4)ncc23)cc1C(=O)Nc1ccc(F)cc1` (centres unmarked) [Example 76, N-(4-fluorophenyl)-2-methyl-5-(3-(tetrahydrofuran-3-yl)imidazo[1,5-a]pyridin-8-yl)nicotinamide] gave a 50% effective concentration (EC50) of 5000 nM.

“N-(4-chlorophenyl)-5-(3-(2,3-difluorophenyl)imidazo[1,5-a]pyridin-8-yl)-2-methylnicotinamide [Example 61]” registered an EC50 of 29.9 nM.

A word on the EC50: it is the concentration at which the effect is half-maximal. The low end stands for a more potent agent, the high end for a less potent agent.
